PMC9377006, “Discovery of Desmuramylpeptide NOD2 Agonists with Single-Digit Nanomolar Potency” (ACS Medicinal Chemistry Letters, 2022)

Test system: K562 cancer cells
Assay: PBMC cytotoxicity against K562 cancer cells
Type: cell-based
Procedure: In addition, we also investigated the ability of 40, both alone and in combination with LPS and IFN-γ, to induce direct and nonspecific cytolytic activity of PBMCs against cancer cells. For this purpose, we used a functional cytotoxicity assay based on the coincubation of preactivated PBMCs and fluorescently labeled K562 cancer cells.[33] Among the heterogeneous subpopulations of PBMCs, natural killer (NK) cells and, to a lesser extent, monocytes represent the main effector cell types in this assay. NK cells play an essential role in tumor and viral immunosurveillance, both through direct cytolytic destruction of aberrant cells and by facilitating the recruitment and activation of other immune cells through the secretion of cytokines.[34] In addition to their well-established role in cancer immunotherapy, NK cells thus also provide an attractive target in the development of vaccine adjuvants, particularly when Th1 cellular immune responses are preferred.[35] Other cell populations, however, may contribute to the magnitude of NK cell-mediated responses via cytokine secretion. To account for the contribution of these accessory cells and to more accurately represent in vivo conditions, the entire PBMC population was used instead of isolated NK cells.
Figure 3 2 and 40 synergize with LPS and IFN-γ to induce the cytotoxicity of PBMCs against K562 cancer cells. Following 18 h of stimulation of PBMCs with 2 (1 μM) or 40 (1 μM) in the presence or absence of LPS (1 μg/mL) and IFN-γ (200 U/mL) or the corresponding vehicle (0.1% DMSO; NT), K562 cells were added in a 40:1 effector to target cell ratio. Cytotoxicity was determined after 4 h of coincubation. IL-2 (200 U/mL) was used as the positive control. Data are shown as relative activities to vehicle-treated control (0.1% DMSO) and are the means ± SEMs of duplicates of two independent experiments. Statistical significance was determined by one-way ANOVA followed by Dunnet’s multiple-comparisons test; **, p < 0.01, ***, p < 0.001. […]
4.8 Peripheral blood mononuclear cell cytotoxicity
The PBMC cytotoxicity assays using K562 cells were performed as described previously, with some modifications.2 PBMCs were seeded (400,000 cells/well) in duplicates in 96 -well U-bottom plates and treated with 2 (1 µM) or 40 (1 µM), in the presence or absence of LPS (1 µg/mL) or IFN-γ (200 U/mL), IL-2 (200 U/mL), or the corresponding vehicle (0.1% DMSO) for 18 h. K562 were stained with carboxyfluorescein succinimidyl ester (CFSE, Invitrogen, Carlsbad, CA, USA), washed twice with complete medium, and added (10,000 cells/well) to the pre-treated PBMCs for a final effector cell to target tumor cell ratio of 40:1. After a 4 h coincubation (37 °C, 5% CO2), cells were stained with Sytox Blue dead cell stain (Invitrogen) and analyzed using an Attune NxT flow cytometer (Thermo Fisher Scientific, Waltham, MA, USA) and FlowJo software (Tree Star, Inc., Ashland, OR, USA). Cells that were positive for both CFSE and Sytox Blue were defined as dead K562 cells. PBMCs alone and CFSE-labeled K562 cells alone were also treated with the compounds at the same concentrations and stained with Sytox Blue to exclude any direct cytotoxicity of the compounds towards the PBMCs and cancer cells.
4.9 Cytokine release from peripheral blood mononuclear cells […]

SMILES: CCOC(=O)CC[C@@H](NC(=O)[C@@H](NC(=O)CNC(=O)/C=C/c1ccc(OC(=O)CC23CC4CC(CC(C4)C2)C3)c(OC)c1)C(C)C)C(=O)OCC [Compound 40]
- LPS- and IFN-γ-induced cytotoxic activity of PBMCs against K562, costimulation (1 μM + LPS 1 μg/mL or IFN-γ 200 U/mL, 18 h, 40:1, 4 h): significantly enhanced
- cytotoxic activity of PBMCs with costimuli, compared to 2 (1 μM + LPS or IFN-γ): slightly stronger activity
- increase in the ratio of dead K562 cells (PBMCs stimulated 18 h with 1 μM compound alone, 40:1 effector to target ratio, 4 h coincubation, relative to vehicle): 1.28 fold
- apoptosis in K562 cells in the absence of PBMCs (cotreatment with 40 and IFN-γ, data not shown): did not induce apoptosis
